How the values were obtained:
[1] = system: B cell lymphoma cell KARPAS422; experiment: Analysis of cell proliferation, KARPAS422; assay type: cell-based, human; conditions: Homo sapiens, KARPAS-422, 336 h; KARPAS422 after 14 days of treatment; read-out: antiproliferative activities IC50
Experimental: B cell lymphoma cell KARPAS422 was cultured using standard cell culture conditions in RPMI-1640 (Invitrogen, cat #11875) supplemented with 15% FBS (Invitrogen, cat #10099-141) in humidified incubator at 37° C., 5% CO2. To assess the effect of PRC2 inhibition on cell proliferation, exponentially growing cells were seeded at a density of 1×10^5 cells/mL in 12-well plate (Corning, cat #CLS3513). After cell seeding, a compound of the invention was added to the cell media (in concentrations ranging from 0 to 100 μM, 3× dilution series). Viable cell numbers were determined every 3-4 days for up to 14 days using Vi-CELL (Beckman Coulter). On days of cell counting, fresh growth media and compound were replenished and cells split back to a density of 1×10^5 cells/mL. Total cell number is expressed as split-adjusted viable cells per mL. The dose response curves and IC50 values were generated using Prism.

EZH2 = EZH2 (Homo sapiens (Human), UniProt Q15910); experiment: ELISA (H3K27 methylation) assay in G401 cell; assay type: cell-based; conditions: (b) ELISA Qualified assay, 48 h
Method in brief: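 G401 cells were exposed for 48 h to 3-fold serial dilutions (8 or 12 points, top 20 μM final). Lysates were analysed by ELISA, with the H3K27 methylation signal normalized to total H3. Percent inhibition versus vehicle was fit to a dose-response curve for IC50.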

[2] = biological target: wild type PRC2 (wtPRC2) complex (Homo sapiens (Human), UniProt Q15910); experiment: EZH2 LC-MS assay (LC-Qualified); assay type: biochemical; conditions: (a) LC-Qualified assay
Chain of wild type PRC2 (wtPRC2) complex (Q15910 whole entry): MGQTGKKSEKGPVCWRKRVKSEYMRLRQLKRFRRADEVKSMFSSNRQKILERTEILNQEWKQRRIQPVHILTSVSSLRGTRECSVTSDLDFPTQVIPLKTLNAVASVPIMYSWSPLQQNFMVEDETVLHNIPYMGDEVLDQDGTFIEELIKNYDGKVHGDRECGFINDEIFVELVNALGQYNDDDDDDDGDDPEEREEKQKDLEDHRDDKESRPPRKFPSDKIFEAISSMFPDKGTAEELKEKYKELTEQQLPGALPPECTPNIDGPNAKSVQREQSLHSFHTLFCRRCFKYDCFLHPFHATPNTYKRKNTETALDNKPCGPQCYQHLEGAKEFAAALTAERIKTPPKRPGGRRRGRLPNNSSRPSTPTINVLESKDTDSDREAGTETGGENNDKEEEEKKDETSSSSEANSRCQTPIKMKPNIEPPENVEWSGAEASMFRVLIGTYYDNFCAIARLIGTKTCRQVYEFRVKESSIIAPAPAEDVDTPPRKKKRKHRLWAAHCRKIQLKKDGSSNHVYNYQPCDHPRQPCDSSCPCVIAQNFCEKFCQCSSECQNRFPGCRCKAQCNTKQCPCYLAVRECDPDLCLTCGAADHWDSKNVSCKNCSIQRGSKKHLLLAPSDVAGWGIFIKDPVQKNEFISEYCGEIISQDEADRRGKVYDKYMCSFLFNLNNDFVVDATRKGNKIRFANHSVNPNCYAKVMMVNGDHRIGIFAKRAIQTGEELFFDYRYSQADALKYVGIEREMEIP
Chain of wild type PRC2 (wtPRC2) complex (Q15022 whole entry partner): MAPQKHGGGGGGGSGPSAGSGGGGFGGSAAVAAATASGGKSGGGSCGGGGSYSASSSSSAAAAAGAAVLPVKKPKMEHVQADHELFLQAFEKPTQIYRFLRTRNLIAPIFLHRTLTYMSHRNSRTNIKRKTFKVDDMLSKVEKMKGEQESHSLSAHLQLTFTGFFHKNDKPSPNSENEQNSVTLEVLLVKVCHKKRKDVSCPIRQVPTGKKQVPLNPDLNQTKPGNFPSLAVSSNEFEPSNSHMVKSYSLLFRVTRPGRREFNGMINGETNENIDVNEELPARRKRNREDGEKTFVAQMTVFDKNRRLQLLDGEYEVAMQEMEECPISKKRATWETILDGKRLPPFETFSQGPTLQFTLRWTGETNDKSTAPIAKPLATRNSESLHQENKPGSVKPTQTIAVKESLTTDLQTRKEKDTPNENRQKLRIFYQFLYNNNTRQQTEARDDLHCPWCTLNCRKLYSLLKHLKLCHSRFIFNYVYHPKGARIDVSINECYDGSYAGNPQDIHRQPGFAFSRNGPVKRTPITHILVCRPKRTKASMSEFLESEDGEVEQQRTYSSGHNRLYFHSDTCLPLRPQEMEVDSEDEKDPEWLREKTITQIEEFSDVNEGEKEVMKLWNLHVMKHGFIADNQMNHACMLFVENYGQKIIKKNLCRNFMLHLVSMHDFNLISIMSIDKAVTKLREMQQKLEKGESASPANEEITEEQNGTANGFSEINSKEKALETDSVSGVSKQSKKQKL
Chain of wild type PRC2 (wtPRC2) complex (O75530 whole entry partner): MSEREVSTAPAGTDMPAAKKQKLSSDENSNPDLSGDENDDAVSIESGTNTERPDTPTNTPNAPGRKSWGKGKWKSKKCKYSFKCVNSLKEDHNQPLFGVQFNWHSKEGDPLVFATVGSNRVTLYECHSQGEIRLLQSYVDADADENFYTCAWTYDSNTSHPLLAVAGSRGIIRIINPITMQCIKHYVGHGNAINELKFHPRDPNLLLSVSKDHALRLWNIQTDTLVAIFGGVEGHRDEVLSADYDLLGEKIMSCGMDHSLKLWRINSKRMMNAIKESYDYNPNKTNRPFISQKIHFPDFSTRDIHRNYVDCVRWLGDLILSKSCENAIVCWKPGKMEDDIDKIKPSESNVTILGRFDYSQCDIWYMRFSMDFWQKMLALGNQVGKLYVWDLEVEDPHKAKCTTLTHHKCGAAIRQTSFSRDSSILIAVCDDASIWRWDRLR
Chain of wild type PRC2 (wtPRC2) complex (Q09028 whole entry partner): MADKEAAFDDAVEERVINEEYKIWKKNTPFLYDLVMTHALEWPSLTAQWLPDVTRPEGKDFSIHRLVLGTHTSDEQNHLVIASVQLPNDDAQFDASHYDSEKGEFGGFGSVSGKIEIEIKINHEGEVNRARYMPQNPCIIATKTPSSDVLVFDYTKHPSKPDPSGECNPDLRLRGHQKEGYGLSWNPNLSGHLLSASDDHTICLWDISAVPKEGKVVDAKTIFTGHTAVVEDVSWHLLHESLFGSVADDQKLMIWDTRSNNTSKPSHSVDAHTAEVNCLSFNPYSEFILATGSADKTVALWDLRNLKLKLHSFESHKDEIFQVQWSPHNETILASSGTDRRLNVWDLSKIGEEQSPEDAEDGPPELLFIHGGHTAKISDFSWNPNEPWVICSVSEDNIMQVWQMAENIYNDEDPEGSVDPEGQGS
Chain of wild type PRC2 (wtPRC2) complex (Q6ZN18 whole entry partner): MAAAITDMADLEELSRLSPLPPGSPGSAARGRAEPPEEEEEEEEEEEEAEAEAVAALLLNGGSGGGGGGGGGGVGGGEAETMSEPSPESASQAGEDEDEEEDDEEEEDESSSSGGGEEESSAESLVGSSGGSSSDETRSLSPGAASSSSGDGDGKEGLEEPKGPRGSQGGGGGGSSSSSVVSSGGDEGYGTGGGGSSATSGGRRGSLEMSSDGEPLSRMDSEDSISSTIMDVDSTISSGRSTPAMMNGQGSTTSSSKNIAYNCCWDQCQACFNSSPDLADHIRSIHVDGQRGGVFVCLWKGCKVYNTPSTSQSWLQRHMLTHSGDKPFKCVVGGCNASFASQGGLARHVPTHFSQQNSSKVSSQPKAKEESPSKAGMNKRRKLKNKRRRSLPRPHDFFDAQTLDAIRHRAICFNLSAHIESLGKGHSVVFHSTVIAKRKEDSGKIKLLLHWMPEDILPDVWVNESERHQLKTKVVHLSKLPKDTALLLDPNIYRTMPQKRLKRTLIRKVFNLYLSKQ

Chain of EZH2 (Q15910 whole entry): as the sequence (Q15910 whole entry) above
Chain of EZH2 (Q15022 whole entry partner): as the sequence (Q15022 whole entry partner) above
Chain of EZH2 (O75530 whole entry partner): as the sequence (O75530 whole entry partner) above
Chain of EZH2 (Q09028 whole entry partner): as the sequence (Q09028 whole entry partner) above

- IC50 [1]: 0.002 µM
- IC50 (EZH2): 0.025 µM
- IC50 [2]: 0.012 µM
Compound: O=C(NC1COC1)C(F)(F)c1cnc(NC[C@H]2CC[C@H](Nc3ccc4ccnc(Cl)c4n3)CC2)nc1 [Compound C77, 2-(2-((((1,4-trans)-4-((8-chloro-1,7-naphthyridin-2-yl)amino)cyclohexyl)methyl)amino)pyrimidin-5-yl)-2,2-difluoro-N-(oxetan-3-yl)acetamide]

Source: patent publication US12544374B2, “AZA-quinoline compounds and uses thereof” (Novartis AG, priority 2019, dated 2026)
